Experiments:
[1] = test system: renal blood flow and renal vascular resistances; test: Cardiovascular parameters (renal blood flow and renal vascular resistances) in anesthetized dogs, intraduodenal administration; type: in vivo, dog; conditions: for selectivity and duration of renal effect (in words) / duration of effects on renal blood flow and resistances: 5 mg/kg; for renal vasodilating effect (in words): comparison of N-methyldopamine 4-O-dihydrogenphosphate with N-methyldopamine
Description: The activity of N-methyldopamine 4-O-dihydrogenphosphate on cardiovascular parameters in anesthetized dogs was compared with that of N-methyldopamine; both compounds were administered by intraduodenal route.

[2] = test system: blood pressure; test: Blood pressure in spontaneous hypertensive rats, oral administration; type: in vivo, rat
From the text: N,N-di-n-propyldopamine 4-O-dihydrogenphosphate reduced blood pressure by 30-35% (p<0.01) when orally administered to spontaneous hypertensive rats at a dose of 0.29 mmoles/kg; the effect lasted five hours while N,N-di-n-propyl dopamine was ineffective at the same dosage and also at 0.58 mmoles/kg.

[3] = test system: urine excretion; test: Urine excretion in normally hydrated rats, oral administration; type: in vivo, rat; conditions: 0.29 mmoles/kg; for increase of urine excretion: p<0.05
From the text: These diuretic properties are useful in the therapy of hypertension and cardiac and renal failure.

[4] = anesthetized dogs, i.d., 0.005 mmoles/kg (1.25 mg/kg), n=6
[5] = anesthetized dogs, i.d., 0.04 mmoles/kg (10 mg/kg), n=7, **P <0.01
[6] = anesthetized dogs, i.d., 0.035 mmoles/kg (7.1 mg/kg), n=5

NCCc1ccc(OP(=O)(O)O)c(O)c1 [Dopamine 4-O-dihydrogenphosphate, dopamine 4-O-dihydrogenphosphate]
selectivity and duration of renal effect (in words) [1]: selective and long lasting
decrease in renal resistances ([1]; 5 mg/kg (0.02 mmoles/kg)): -15%
increase in renal blood flow ([1]; 5 mg/kg (0.02 mmoles/kg)): +14.5%

CCCN(CCC)CCc1ccc(O)c(O)c1 [N,N-di-n-propyl dopamine, N,N-di-n-propyldopamine, reference compound]
effect on blood pressure (in words) ([2]; 0.29 mmoles/kg): ineffective
effect on blood pressure (in words) ([2]; 0.58 mmoles/kg): ineffective

CCCN(CCC)CCc1ccc(OP(=O)(O)O)c(O)c1 [N,N-di-n-propyldopamine 4-O-dihydrogenphosphate]
duration of blood pressure reduction ([2]; 0.29 mmoles/kg): five
reduction of blood pressure ([2]; 0.29 mmoles/kg, p<0.01): 30-35%

CNCCc1ccc(O)c(OP(=O)(O)O)c1 [N-methyldopamine 3-O-dihydrogenphosphate]
increase of urine excretion [3]: 180%

CNCCc1ccc(OP(=O)(O)O)c(O)c1 [N-methyldopamine 4-O-dihydrogenphosphate]
duration of renal vasodilating action ([1]; anesthetized dogs, i.d.): about four
modification of other hemodynamic parameters ([1]; anesthetized dogs, i.d.): without any modification of other hemodynamic parameters
Maximum percentage variation of renal blood flow [1, 4]: +14.2%
Maximum percentage variation of renal vascular resistances [1, 4]: -11.2%
Maximum percentage variation of renal vascular resistances ([1]; anesthetized dogs, i.d., 0.01 mmoles/kg (2.5 mg/kg), n=6): -14.1%
Maximum percentage variation of renal blood flow ([1]; anesthetized dogs, i.d., 0.01 mmoles/kg (2.5 mg/kg), n=6, **P <0.01): +18.5%
Maximum percentage variation of renal blood flow ([1]; anesthetized dogs, i.d., 0.02 mmoles/kg (5 mg/kg), n=7, **P <0.01): +36.4%
Maximum percentage variation of renal vascular resistances ([1]; anesthetized dogs, i.d., 0.02 mmoles/kg (5 mg/kg), n=7, *P <0.05): -24.5%
Maximum percentage variation of renal blood flow [1, 5]: +31.7%
Maximum percentage variation of renal vascular resistances [1, 5]: -28.1%
renal vasodilating effect (in words) ([1]; anesthetized dogs, i.d.): improved effectiveness, either in terms of activity or duration of action or selective renal vasodilating action
absorption ([1]; i.d., compared with N-methyldopamine): improved absorption
increase of urine excretion [3]: 170%

CCOP(=O)(O)Oc1ccc(CCNC)cc1O [N-methyldopamine 4-O-ethyl-hydrogenphosphate]
duration of effects on renal blood flow and resistances [1]: over 5 hours
increase of renal blood flow ([1]; 5 mg/kg (0.018 mmoles/kg)): +46%
reduction of renal resistances ([1]; 5 mg/kg (0.018 mmoles/kg)): -32%

CNCCc1ccc(OP(=O)(O)OC)c(O)c1 [N-methyldopamine 4-O-methylhydrogenphosphate]
duration of effects on renal blood flow and resistances [1]: over 5 hours
increase of renal blood flow ([1]; 5 mg/kg (0.019 mmole/kg)): +26%
reduction of renal resistances ([1]; 5 mg/kg (0.019 mmole/kg)): -19%

CNCCc1ccc(O)c(O)c1 [N-methyldopamine, reference compound]
accompanying effect on blood pressure ([1]; anesthetized dogs, i.d.): undesired increase of blood pressure
accompanying effect on the heart ([1]; anesthetized dogs, i.d.): stimulation of the heart
duration of renal vasodilating action ([1]; anesthetized dogs, i.d.): two
Maximum percentage variation of renal blood flow [1, 6]: +14.9%
Maximum percentage variation of renal vascular resistances [1, 6]: -14%
renal vasodilating effect (in words) ([1]; anesthetized dogs, i.d.): smaller effect
effect on urine excretion (in words) [3]: ineffective

N[C@@H](CCC(=O)NCCc1ccc(OP(=O)(O)O)c(O)c1)C(=O)O [N^5-[2-(3,4-dihydroxyphenyl)-ethyl]-L-glutamine 4-O-dihydrogenphosphate]
selectivity and duration of renal effect (in words) [1]: selective and long lasting
decrease in renal resistances ([1]; 5 mg/kg (0.014 mmoles/kg)): -18%
increase in renal blood flow ([1]; 5 mg/kg (0.014 mmoles/kg)): +25%

NCCc1ccc(O)c(O)c1 [dopamine, 1-(3,4-dihydroxyphenyl)-2-amino-ethane, reference compound]
effect on renal blood flow and renal resistances (in words) ([1]; 10 mg/kg (0.053 mmoles/kg)): ineffective

Reference: patent publication US4673671A, “Method for improving the absorption and effectiveness of a catecholamine compound” (SIMES Societa Italiana Medicinali e Sintetici S.p.A., priority 1984, dated 1987)
